Data from US9388250B2, “Method to treat psoriasis and other hyperproliferative skin disorders” (CORNELL UNIVERSITY, priority 2009, dated 2016).

Columns and labels:
keratinocytes in culture = assay: IL-22-induced rise in cAMP within keratinocytes in culture; type: cell-based; conditions: IL-22 stimulated
From the text: To address the role of sAC in keratinocyte proliferation we studied IL-22-induced psoriasis pathogenesis as a model system. IL-22 induced a rise in cAMP within keratinocytes in culture. This cAMP rise was inhibited by KH7 (a specific inhibitor of sAC).

C57B1/6 mouse ears [1] = assay: IL-22-induced acanthosis in mouse ears, subcutaneous co-injection of IL-22+KH7; type: in vivo
Procedure: FIG. 1 Tissue sections stained with H/E of C57B1/6 mouse ears following injection with saline, IL-22 and IL-22+KH7 (a sAc inhibitor). Slides were visualized on a standard pathology microscope. Bar graph in lower right corner represents the average±SEM thickness of epidermis in each of three conditions listed in the previous sentence. a student t test was performed with p value listed.
IL-22 protein was purchased from Preprotech and reconstituted in sterile water as per the manufacturer's instructions. Concentrated IL-22 was diluted to a working concentration of 500 ng/20 μL in sterile saline alone, or with KH7 at 100 μM. These solutions were prepared fresh each day they were used. C57B1/6 mice greater than 2 months in age, kept under a normal light/dark cycle, and fed normal chow were injected subcutaneously in their left ear with 20 μL of IL-22 alone and in their right ear with 20 μL of IL-22+KH7 every other day for two weeks, or were injected subcutaneously in their left and right ear with 20 μL of IL-22 and then treated topically (54) following each injection with vehicle on the left ear and KH7 on the right ear every other day for two weeks. As a control C57B1/6 mice were injected with 20 μL of IL-22 in their left ear and 20 μL of sterile saline alone in their right ear every other day for two weeks. After two weeks the ears were removed, formalin fixed, paraffin embedded, sectioned, and stained with simple hematoxylin and eosin. Epidermal height was measured from the bottom of the basal cell layer to the top of the granular cell layer using a microscope and a micrometer. Three to four measurements were taken along the ear and multiple sections were measured for each condition. In addition, the total number of acanthotic ear sections were recorded as an indication of the distribution of acanthosis.

C57B1/6 mouse ears [2] = assay: IL-22-induced acanthosis in mouse ears, topical application of KH7; type: in vivo; conditions: ear painted with 100 micromolar KH7 in DMSO one hour after IL-22 injection, every other day for two weeks, three mice, ANOVA P<0.05 IL-22 vs IL-22+KH7, not different from control
Procedure: FIG. 11. Topical application of KH7 inhibits IL-22-induced acanthosis As before C57B1/6 mouse ears were injected with normal saline (control) or 500 ng of IL-22 in 20 microliters of normal saline (IL-22). After incubation for one hour the left ear was painted with 5 microliters of DMSO and the right ear was painted with 100 micromolar KH7 in DMSO (IL-22+KH7). This was repeated every other day for two weeks. The ears were then removed and the total area of acanthosis of each ear was calculated and represented as a % of acanthosis relative to control ears. […]
IL-22 protein was purchased from Preprotech and reconstituted in sterile water as per the manufacturer's instructions. […] Epidermal height was measured from the bottom of the basal cell layer to the top of the granular cell layer using a microscope and a micrometer. Three to four measurements were taken along the ear and multiple sections were measured for each condition. In addition, the total number of acanthotic ear sections were recorded as an indication of the distribution of acanthosis.
Topical application of KH7 inhibits IL-22-induced acanthosis. […] The ears were then removed and the total area of acanthosis of each ear was calculated and represented as a % of acanthosis relative to control ears. […]

CC(Sc1nc2ccccc2[nH]1)C(=O)N/N=C/c1cc(Br)ccc1O (centres unmarked) [KH7]
IL-22-induced cAMP rise within keratinocytes (keratinocytes in culture): inhibited
IL-22-induced acanthosis (thickness of epidermis) (C57B1/6 mouse ears [1]; IL-22 500 ng/20 μL with KH7 at 100 μM, every other day for two weeks): completely blocked
IL-22-induced parakeratosis (C57B1/6 mouse ears [1]; IL-22 with KH7, every other day for two weeks): completely blocked
IL-22-induced recruitment of immunocytes (ie T cells) (C57B1/6 mouse ears [1]; injection of IL-22+KH7, H/E sections): completely blocked
IL-22-induced acanthosis (total area of acanthosis, % relative to control ears) (C57B1/6 mouse ears [2]): inhibits
